Patent publication US5789395A, “Method of using tetracycline compounds for inhibition of endogenous nitric oxide production” (The Research Foundation of State University of New York, priority 1996, dated 1998)
≈ marks a conversion by molar mass, not a printed value.

Key:
[1] = tested on: inducible OA-NOS in OA-affected cartilage; test: NO (nitrite) release from OA-affected cartilage in organ culture; assay type: cell-based, human; details: for inhibition of NO production in OA-affected cartilage: 5-80 μg/mL, 24-72 h, ex vivo; for IC50: Homo sapiens, 72 h
Source text: We examined whether tetracyclines, e.g., doxycycline or minocycline, could block human OA-NOS activity under ex vivo conditions. Generally accepted pharmacologically relevant concentrations were selected for this study based on previous reports (Greenwald 1994, Yu et al. 1991, Cole et al. 1994, Mallya et al. 1994). OA-affected cartilage was obtained from patients with advanced OA undergoing knee replacement surgery and free of steroidal/nonsteroidal antiinflammatory drugs for at least 2 wk before surgery. OA-affected cartilage slices (FIGs. 1A-1C) were incubated in 0.1% BSA/endotoxin-free medium with 5-80 μg/mL of doxycycline or minocycline (Sigma Chemical Co., St. Louis, Mo.) for 24, 48 and 72 h in ex vivo conditions.
The assay of OA-iNOS in organ culture was basically carried out as described previously (Amin et al. 1995a). Briefly, the OA-affected cartilage was cultured in the presence or absence (Control) of doxycycline and minocycline at 5-80 μg/mL, for 24-72 h in an incubator (37° C.). Activity of NOS was monitored at different time intervals by estimating the amount of the stable end-product, nitrite, in the medium by a modified Griess reaction (Gilliam et al. 1993) using an ELISA reader. The amount of NO spontaneously released (as measured by nitrite accumulation) at 0, 24, 48 and 72 h was 0, 4.8±0.38, 16.4±0.7, and 17.8±0.9 μM, respectively. Data are expressed as μM nitrite released±(SD), n=3-4. The statistics were derived using unpaired Student's t test. FIGS. 1A-1C show a time series of graphs (1A=24 h; 1B=48 h; and IC=72 h) summarizing data representing one of three identical experiments with samples from different patients.

[2] = tested on: iNOS mRNA; test: iNOS mRNA expression in LPS-stimulated RAW 264.7 cells (RT-PCR); assay type: cell-based, murine; details: 20-40 μg/mL
Procedure: Doxycycline and minocycline may suppress iNOS before the synthesis of the enzyme, leading to inhibition of iNOS protein expression, specific activity and accumulation of nitrite. […] Therefore, to determine the level at which tetracycline inhibited iNOS protein expression, RAW 264.7 cells treated with LPS in the presence or absence of doxycycline and minocycline were analyzed for iNOS mRNA by semi-quantitative RT-PCR.
The presence of iNOS and β-actin mRNA in cells was analyzed by reverse transcription (RT) of total RNA followed by PCR amplification of the cDNA. The sense and antisense oligonucleotides for iNOS were, respectively, 5'-ACGGAGAAGCTTAGATCTGGAGCAGAAGTG-3'(142 to 171) (SEQ ID NO:1) and 5'-CTGCAGGTTGGACCACTGGATCCTGCCGAT-3' (767 to 796) (SEQ ID NO:2). The sense and antisense primers for β-actin were 5'-TCCTTCGTTGCCGGTCCACA-3' (44 to 63) (SEQ ID NO:3) and 5'-CGTCTCCGGAGTCCATCACA-3' (534 to 552) (SEQ ID NO:4), respectively. The predicted PCR product of the iNOS cDNA was 654 bp; that of the β-actin cDNA was 508 bp. The polymerase chain reaction was carried out in an automated DNA thermal cycle (Perkin-Elmer Cetus, Norwalk, Conn.). The total RNA was extracted using TRI-Reagent (MRC Inc., Cincinnati, Ohio). The cDNA was prepared from equal amounts (1-5 μg) of total RNA using a SuperScript™ RNase H Reverse Transcriptase (Gibco BRL, Gaithersburg, Md.). An equal amount of the cDNA was used to amplify the mRNA by PCR. PCR amplification was performed in 50 μL solution containing 1.5 mM MgCl2, 500 ng iNOS primer, 100 ng β-actin primer, 0.2 mM of each dNTP, 2.5 units of Taq DNA polymerase (Gibco). The cycle conditions for amplification of cDNA were 1 min at 94° C., 1-2 min at 55° C. and 3 min at 72° C. for 30 cycles for both iNOS and β-actin. The PCR product was analyzed by electrophoresis on 1.0% agarose gels.
RT-PCR analysis of iNOS and βactin mRNA expression in RAW 264.7 cells was carried out after stimulation with LPS±doxycycline or minocycline. […] Equal amounts of RNA were analyzed for iNOS and β-actin expression as described above.

[3] = tested on: patients with mild and moderate arthritis; details: Tilley et al. 1995; cited from earlier work
[4] = tested on: gelatinase in UMR 106-01 osteoblastic cell line; details: Vernillo et al. 1993; cited from earlier work
[5] = tested on: gelatinase in ROS 17/2.8 osteoblastic cell line; details: Vernillo et al. 1993; cited from earlier work
[6] = tested on: collagenase; details: cited from earlier work
[7] = tested on: dog models of OA; details: prophylactic administration; Yu et al. (1992); cited from earlier work
[8] = tested on: cartilage; details: 20-50 μg/mL; Cole et al. 1994; cited from earlier work

| Structure (SMILES) | inhibition of NO production in OA-affected cartilage [1] | IC50 [1] [µg/mL] | decrease of iNOS mRNA expression [2] [%] | safety and efficacy in arthritis [3] | IC50, gelatinase activity [4] [µg/mL] | IC50, gelatinase activity [5] [µg/mL] | anti-collagenase activity [6] | severity of OA [7] | effect on proteoglycan loss and cell death [8] |
| --- | --- | --- | --- | --- | --- | --- | --- | --- | --- |
| CN(C)c1ccc(O)c2c1C[C@H]1C[C@H]3[C@H](N(C)C)C(O)=C(C(N)=O)C(=O)[C@@]3(O)C(O)=C1C2=O [minocycline] | significantly inhibited NO production in OA-affected cartilage in a dose-dependent manner | 54 (≈ 118 µM) | > 50 | safe and effective for patients with mild and moderate arthritis | – | – | – | – | – |
| C[C@H]1c2cccc(O)c2C(O)=C2C(=O)[C@]3(O)C(O)=C(C(N)=O)C(=O)[C@@H](N(C)C)[C@@H]3[C@@H](O)[C@@H]21 [doxycycline] | significantly inhibited NO production in OA-affected cartilage in a dose-dependent manner | 32 (≈ 72 µM) | > 50 | – | > 200 | 20 to 30 | inhibits collagenase activity via direct effects on the enzyme | markedly reduced the severity of OA | blocks proteoglycan loss and reduces the cell death associated with proteoglycan loss |
